How the values were obtained:
aromatase [1] = settings: reported in Biochemical Pharmacology, 34, 1087 (1985); cited from earlier work
aromatase [2] = assay: In vivo-inhibition of the aromatase activity (plasma estradiol in PMSG-injected immature female Wistar rats); parameters: species or system rat (immature female Wistar rats); settings: 1 mg/kg oral gavage, two hours following administration, PMSG-injected immature female Wistar rats
Protocol: Immature female Wistar rats weighing 120 g were injected subcutaneously with 200 I.U. of pregnant mare's serum gonadotropin (PMSG). […] Control animals received 20% polyethyleneglycol only. Two hours following drug or placebo administration the rats were killed by decapitation and trunk blood was collected on heparine. Plasma estradiol concentrations were measured by standard radio-immunological procedures.

aromatase [3] = molecular target: T1, aromatase (Homo sapiens, UniProt P11511); assay: biochemical; settings: human placental microsomes, 30 min at 37° C., pH 7.4, 1,2[3H]androstenedione; read-out: IC50-values (concentration of the compound required to obtain 50% inhibition of the estrogen synthesis)
T1 sequence (P11511 1-503): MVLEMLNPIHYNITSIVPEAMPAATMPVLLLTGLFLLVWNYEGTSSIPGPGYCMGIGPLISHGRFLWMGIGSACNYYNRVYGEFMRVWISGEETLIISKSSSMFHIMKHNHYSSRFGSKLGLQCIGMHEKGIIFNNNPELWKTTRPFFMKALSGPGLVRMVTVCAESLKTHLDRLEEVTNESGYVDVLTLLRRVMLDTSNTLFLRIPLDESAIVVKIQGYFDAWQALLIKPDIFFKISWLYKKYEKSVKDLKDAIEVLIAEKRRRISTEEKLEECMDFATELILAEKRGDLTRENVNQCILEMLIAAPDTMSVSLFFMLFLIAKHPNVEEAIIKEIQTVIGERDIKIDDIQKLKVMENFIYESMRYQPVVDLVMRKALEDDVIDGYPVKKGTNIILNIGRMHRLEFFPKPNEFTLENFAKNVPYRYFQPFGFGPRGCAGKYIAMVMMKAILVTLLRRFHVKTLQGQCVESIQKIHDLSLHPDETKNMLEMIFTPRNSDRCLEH
Protocol: Human placental microsomes were diluted in potassium phosphate buffer (0.1M, pH 7.4) to give about 50% conversion of androgens to estrogens (protein content: about 0.5 mg). Four ml human placental microsomes were incubated in a final volume of 5 ml with 0.2 μCi1,2[3H]-androstenedione, 2 μg androstendione and 5 μl of test compound and/or dimethyl sulfoxide (DMSO). […] The reaction was initiated by the addition of androstenedione and proceeded for 30 min at 37° C. During the incubation period, the mixtures were gassed with air. In this assay, aromatization of androstenedione results in the production of [3H]-H2 O which is isolated by extracting the samples with chloroform to remove the free steroid.

Clc1ccc(COC(Cn2ccnc2)c2ccc(Cl)cc2Cl)c(Cl)c1 (stereo not drawn) [miconazole]
inhibition of the action of the enzyme aromatase (in words) (aromatase [1]): inhibit the action of the enzyme aromatase

CC(=O)N1CCN(c2ccc(OCC3COC(Cn4ccnc4)(c4ccc(Cl)cc4Cl)O3)cc2)CC1 (stereo not drawn) [ketoconazole]
inhibition of the action of the enzyme aromatase (in words) (aromatase [1]): inhibit the action of the enzyme aromatase

c1ccc(CCn2nnc3ccc(Cn4ccnc4)cc32)cc1 [Compound 92]
% recovery estradiol (plasma estradiol relative to the controls) (aromatase [2]): 15%
IC50 (aromatase [3]): 8.7 nM

Cn1nnc2ccc(C(c3ccc(F)cc3)n3ccnc3)cc21 (stereo not drawn) [Compound 29]
% recovery estradiol (plasma estradiol relative to the controls) (aromatase [2]): 7%
IC50 (aromatase [3]): 15.9 nM

CCn1nnc2ccc(Cn3ccnc3)cc21 [Compound 102]
% recovery estradiol (plasma estradiol relative to the controls) (aromatase [2]): 2%
IC50 (aromatase [3]): 31.7 nM

CC(C)On1nnc2ccc(Cn3ccnc3)cc21 [Compound 195, 6-(1H-imidazol-1-ylmethyl)-1-(1-methylethoxy)-1H-benzotriazole]
% recovery estradiol (plasma estradiol relative to the controls) (aromatase [2]): 19%
IC50 (aromatase [3]): 12 nM

c1ccc(CCCOn2nnc3ccc(Cn4ccnc4)cc32)cc1 [Compound 207]
% recovery estradiol (plasma estradiol relative to the controls) (aromatase [2]): 26%
IC50 (aromatase [3]): 7.3 nM

c1cn(Cc2ccc3nnn(C4CC5CCC4C5)c3c2)cn1 (stereo not drawn) [Compound 103]
% recovery estradiol (plasma estradiol relative to the controls) (aromatase [2]): 5%
IC50 (aromatase [3]): 16.3 nM

Cn1nnc2ccc(C(c3ccsc3)n3ccnc3)cc21 (stereo not drawn) [Compound 69, 6-[(1H-imidazol-1-yl) (3-thienyl)methyl]-1-methyl-1H-benzotriazole]
% recovery estradiol (plasma estradiol relative to the controls) (aromatase [2]): 5%
IC50 (aromatase [3]): 29 nM

Cn1nnc2ccc(C(c3cccc(Cl)c3)n3ccnc3)cc21 (stereo not drawn) [Compound 28]
% recovery estradiol (plasma estradiol relative to the controls) (aromatase [2]): 6%
IC50 (aromatase [3]): 25.3 nM

c1cn(Cc2ccc3nnn(CC4CC4)c3c2)cn1 [Compound 108]
% recovery estradiol (plasma estradiol relative to the controls) (aromatase [2]): 3%
IC50 (aromatase [3]): 15.2 nM

c1cn(Cc2ccc3nnn(C4CCCC4)c3c2)cn1 [Compound 107]
% recovery estradiol (plasma estradiol relative to the controls) (aromatase [2]): 6%
IC50 (aromatase [3]): 14.1 nM

c1cn(Cc2ccc3nnn(C4CCCCCC4)c3c2)cn1 [Compound 100]
% recovery estradiol (plasma estradiol relative to the controls) (aromatase [2]): 3%
IC50 (aromatase [3]): 14.3 nM

C=CCn1nnc2ccc(Cn3ccnc3)cc21 [Compound 106]
% recovery estradiol (plasma estradiol relative to the controls) (aromatase [2]): 8%
IC50 (aromatase [3]): 24.4 nM

Clc1ccccc1C(c1ccccc1)(c1ccccc1)n1ccnc1 [clotrimazole]
inhibition of the action of the enzyme aromatase (in words) (aromatase [1]): inhibit the action of the enzyme aromatase

Reference: patent US4943574A, “(1H-azol-1-ylmethyl) substituted benzotriazole derivatives and pharmaceutical compositions containing them” (Janssen Pharmaceutica N.V., priority 1989, dated 1990)
